Active and inactive are the calls of the source.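 Rule for the calls: active = CXCR6 IC50 under 10 µM and IC50 at the unrelated APJ receptor at least five times higher; inactive = the rest.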
Legend:
[1] = molecular target: Apelin receptor (Homo sapiens) (UniProt P35414); assay: APJ beta-arrestin recruitment blockade alongside CXCR6 – cell-based, DiscoveRx, panel, CHO-K1, counter-screen for CXCR6 antagonist project, SAR follow-up (AID 651598); settings: CHO-K1 PathHunter beta-arrestin luminescence, antagonist mode; APJ; mean of runs
[2] = molecular target: C-X-C chemokine receptor type 6 (Homo sapiens) (UniProt O00574); assay: as above; settings: CHO-K1 PathHunter beta-arrestin luminescence, antagonist mode; CXCR6; mean of runs
Sequence of C-X-C chemokine receptor type 6 (Homo sapiens) (O00574 whole entry, looked up): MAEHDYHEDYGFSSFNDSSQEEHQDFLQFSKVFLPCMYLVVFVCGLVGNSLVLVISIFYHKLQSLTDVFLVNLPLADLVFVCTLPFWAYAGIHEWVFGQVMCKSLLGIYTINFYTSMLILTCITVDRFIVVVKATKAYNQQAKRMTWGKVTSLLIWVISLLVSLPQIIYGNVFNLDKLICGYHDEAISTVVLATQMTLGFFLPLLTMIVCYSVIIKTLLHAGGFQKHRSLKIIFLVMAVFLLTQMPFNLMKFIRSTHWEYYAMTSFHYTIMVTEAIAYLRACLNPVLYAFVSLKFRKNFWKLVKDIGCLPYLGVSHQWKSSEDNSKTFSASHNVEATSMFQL

Sequence of Apelin receptor (Homo sapiens) (P35414 whole entry, looked up): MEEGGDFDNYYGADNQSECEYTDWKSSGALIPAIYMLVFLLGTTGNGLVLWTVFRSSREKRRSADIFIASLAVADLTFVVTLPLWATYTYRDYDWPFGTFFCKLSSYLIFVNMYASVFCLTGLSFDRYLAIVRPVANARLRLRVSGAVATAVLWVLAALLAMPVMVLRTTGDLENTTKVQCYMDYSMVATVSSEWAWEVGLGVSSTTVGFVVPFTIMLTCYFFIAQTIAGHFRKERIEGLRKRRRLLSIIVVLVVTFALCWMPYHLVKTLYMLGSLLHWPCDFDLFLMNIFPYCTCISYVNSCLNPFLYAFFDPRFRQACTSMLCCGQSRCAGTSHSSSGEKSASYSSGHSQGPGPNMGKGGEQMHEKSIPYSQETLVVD

| Compound | IC50 [1] | IC50 [2] |
| --- | --- | --- |
| COc1cc(C(=O)NC2CCN(CC(=O)Nc3ccccc3)CC2)cc(OC)c1OC | > 80 µM (inactive) | > 80 µM (inactive) |
| COc1cc(C(=O)NC2CC3CCCC(C2)N3CC(=O)Nc2ccccc2)cc(OC)c1OC (centres undefined) | > 80 µM (inactive) |  |
| COc1cc(C(=O)NC2CC3CCC(C2)N3CC(=O)Nc2ccccc2)cc(OC)c1OC (centres undefined) | > 80 µM (inactive) |  |
